Experimental data reported in ChEMBL document CHEMBL4184210, “Optimization of novel monobactams with activity against carbapenem-resistant Enterobacteriaceae - Identification of LYS228” (Bioorg Med Chem Lett, 2018).
In brackets after ≈: the same amount, converted by molar mass.

Tests used:
Escherichia coli [1] = assay: microbe, parasite or virus in culture
Escherichia coli [2] = assay: microbe, parasite or virus in culture; remark: listed apart in the source
Escherichia coli [3] = assay: microbe, parasite or virus in culture; remark: listed apart in the source
Escherichia coli [4] = assay: microbe, parasite or virus in culture; remark: listed apart in the source
Escherichia coli [5] = assay: microbe, parasite or virus in culture; remark: listed apart in the source
Escherichia coli [6] = assay: microbe, parasite or virus in culture; remark: listed apart in the source
Escherichia coli [7] = assay: microbe, parasite or virus in culture; remark: listed apart in the source
Escherichia coli [8] = assay: microbe, parasite or virus in culture; remark: listed apart in the source
Escherichia coli [9] = assay: microbe, parasite or virus in culture; remark: listed apart in the source
Escherichia coli [10] = assay: microbe, parasite or virus in culture; remark: listed apart in the source
Escherichia coli [11] = assay: microbe, parasite or virus in culture; remark: listed apart in the source
Escherichia coli [12] = assay: microbe, parasite or virus in culture; remark: listed apart in the source
Escherichia coli [13] = assay: microbe, parasite or virus in culture; remark: listed apart in the source
Escherichia coli [14] = assay: microbe, parasite or virus in culture; remark: listed apart in the source
Escherichia coli [15] = assay: microbe, parasite or virus in culture; remark: listed apart in the source
Escherichia coli [16] = assay: microbe, parasite or virus in culture; remark: listed apart in the source
Escherichia coli [17] = assay: microbe, parasite or virus in culture; remark: listed apart in the source
Escherichia coli [18] = assay: microbe, parasite or virus in culture; remark: listed apart in the source
Escherichia coli [19] = assay: microbe, parasite or virus in culture; remark: listed apart in the source
Escherichia coli [20] = assay: microbe, parasite or virus in culture; remark: listed apart in the source
Escherichia coli [21] = assay: microbe, parasite or virus in culture; remark: listed apart in the source
Escherichia coli [22] = assay: microbe, parasite or virus in culture; remark: listed apart in the source
[23] = Chemical stability in pH 7.4 potassium phosphate buffer assessed as half life for compound hydrolysis at 37 degC by UPLC and mass spectrometry; format: physicochemical
Escherichia coli [24] = assay: microbe, parasite or virus in culture; remark: listed apart in the source
Escherichia coli [25] = assay: Antimicrobial activity against Escherichia coli expressing beta-lactamase NDM-1 by CLSI broth microdilution method; format: functional
Escherichia coli [26] = assay: Antimicrobial activity against Escherichia coli expressing beta-lactamase KPC-2 by CLSI broth microdilution method; format: functional
Escherichia coli [27] = assay: microbe, parasite or virus in culture; remark: listed apart in the source
Escherichia coli [28] = assay: microbe, parasite or virus in culture; remark: listed apart in the source
Escherichia coli [29] = assay: microbe, parasite or virus in culture; remark: listed apart in the source
Escherichia coli [30] = assay: microbe, parasite or virus in culture; remark: listed apart in the source
Escherichia coli [31] = assay: microbe, parasite or virus in culture; remark: listed apart in the source
Escherichia coli [32] = assay: microbe, parasite or virus in culture; remark: listed apart in the source
Escherichia coli [33] = assay: microbe, parasite or virus in culture; remark: listed apart in the source
Escherichia coli [34] = assay: microbe, parasite or virus in culture; remark: listed apart in the source
Escherichia coli [35] = assay: microbe, parasite or virus in culture; remark: listed apart in the source
Escherichia coli [36] = assay: microbe, parasite or virus in culture; remark: listed apart in the source
Escherichia coli [37] = assay: microbe, parasite or virus in culture; remark: listed apart in the source
Escherichia coli [38] = assay: microbe, parasite or virus in culture; remark: listed apart in the source
Escherichia coli [39] = assay: Antimicrobial activity against Escherichia coli expressing beta-lactamase NDM-5 by CLSI broth microdilution method; format: functional
Escherichia coli [40] = assay: Antimicrobial activity against Escherichia coli expressing beta-lactamase TEM-1 by CLSI broth microdilution method; format: functional
Escherichia coli [41] = assay: microbe, parasite or virus in culture; remark: listed apart in the source
Escherichia coli [42] = assay: microbe, parasite or virus in culture; remark: listed apart in the source
Escherichia coli [43] = assay: microbe, parasite or virus in culture; remark: listed apart in the source
Escherichia coli [44] = assay: microbe, parasite or virus in culture; remark: listed apart in the source
Escherichia coli [45] = assay: Antimicrobial activity against Escherichia coli expressing beta-lactamase VEB-1 by CLSI broth microdilution method; format: functional
Escherichia coli [46] = assay: microbe, parasite or virus in culture; remark: listed apart in the source
Pseudomonas aeruginosa [47] = assay: Antimicrobial activity against Pseudomonas aeruginosa expressing nalB/delta-mexXY/delta-mexCDoprJ/delta-ampC by CLSI broth microdilution method; format: functional
Pseudomonas aeruginosa [48] = assay: Antimicrobial activity against Pseudomonas aeruginosa ATCC 27853 by CLSI broth microdilution method; format: functional
Pseudomonas aeruginosa [49] = assay: Antimicrobial activity against Pseudomonas aeruginosa expressing delta-mexB/mexXY/delta-ampDh2/ delta-ampD by CLSI broth microdilution method; format: functional
Pseudomonas aeruginosa [50] = assay: Antimicrobial activity against Pseudomonas aeruginosa expressing delta-mexB/delta-mexXY/delta-mexCD and delta-ampC mutant by CLSI broth microdilution method; format: functional

CO/N=C(\C(=O)N[C@@H]1C(=O)N2C(C(=O)[O-])=C(C[N+]3(C)CCCC3)CS[C@H]12)c1csc(N)n1
MIC (Escherichia coli [1]): ≤ 0.03 µg/mL | MIC (Escherichia coli [2]): 16 µg/mL (≈ 33.3 µM) | MIC (Escherichia coli [3]): 0.25 µg/mL (≈ 0.52 µM) | MIC (Escherichia coli [4]): 0.125 µg/mL (≈ 0.26 µM) | MIC (Escherichia coli [5]): 1 µg/mL (≈ 2.08 µM) | MIC (Escherichia coli [6]): 1 µg/mL (≈ 2.08 µM) | MIC (Escherichia coli [7]): 0.125 µg/mL (≈ 0.26 µM) | MIC (Escherichia coli [8]): 0.125 µg/mL (≈ 0.26 µM) | MIC (Escherichia coli [9]): 1 µg/mL (≈ 2.08 µM) | MIC (Escherichia coli [10]): 0.25 µg/mL (≈ 0.52 µM) | MIC (Escherichia coli [11]): 1 µg/mL (≈ 2.08 µM) | MIC (Escherichia coli [12]): 4 µg/mL (≈ 8.32 µM) | MIC (Escherichia coli [13]): 1 µg/mL (≈ 2.08 µM) | MIC (Escherichia coli [14]): 0.25 µg/mL (≈ 0.52 µM) | MIC (Escherichia coli [15]): 4 µg/mL (≈ 8.32 µM) | MIC (Escherichia coli [16]): 0.25 µg/mL (≈ 0.52 µM) | MIC (Escherichia coli [17]): 0.125 µg/mL (≈ 0.26 µM) | MIC (Escherichia coli [18]): 4 µg/mL (≈ 8.32 µM) | MIC (Escherichia coli [19]): 0.125 µg/mL (≈ 0.26 µM) | MIC (Escherichia coli [20]): 16 µg/mL (≈ 33.3 µM) | MIC (Escherichia coli [21]): 0.125 µg/mL (≈ 0.26 µM)

CC(C)(O/N=C(\C(=O)N[C@@H]1C(=O)N(S(=O)(=O)O)[C@@H]1Cn1ccnn1)c1csc(N)n1)C(=O)O (stereo in doubt)
MIC (Escherichia coli [1]): 0.5 µg/mL (≈ 0.995 µM) | MIC (Escherichia coli [22]): 2 to 4 µg/mL (≈ 3.98 to 7.96 µM) | half-life [23]: 257 h | MIC (Escherichia coli [24]): 4 µg/mL (≈ 7.96 µM) | MIC (Escherichia coli [25]): 0.5 µg/mL (≈ 0.995 µM) | MIC (Escherichia coli [13]): 2 µg/mL (≈ 3.98 µM) | MIC (Escherichia coli [26]): 2 µg/mL (≈ 3.98 µM) | MIC (Escherichia coli [19]): 8 µg/mL (≈ 15.9 µM) | MIC (Escherichia coli [20]): 1 µg/mL (≈ 1.99 µM)

CC(C)(O/N=C(\C(=O)N[C@@H]1C(=O)N2C(C(=O)[O-])=C(C[n+]3ccccc3)CS[C@H]12)c1csc(N)n1)C(=O)O [CEFTAZIDIME]
MIC (Escherichia coli [1]): 0.125 µg/mL (≈ 0.229 µM) | MIC (Escherichia coli [22]): 8 µg/mL (≈ 14.6 µM) | MIC (Escherichia coli [2]): > 64 µg/mL | MIC (Escherichia coli [3]): 64 µg/mL (≈ 117 µM) | MIC (Escherichia coli [4]): 0.5 µg/mL (≈ 0.915 µM) | MIC (Escherichia coli [5]): 1 µg/mL (≈ 1.83 µM) | MIC (Escherichia coli [6]): 64 µg/mL (≈ 117 µM) | MIC (Escherichia coli [27]): > 64 µg/mL | MIC (Escherichia coli [7]): 8 µg/mL (≈ 14.6 µM) | MIC (Escherichia coli [24]): > 64 µg/mL | MIC (Escherichia coli [28]): > 64 µg/mL | MIC (Escherichia coli [29]): 0.125 µg/mL (≈ 0.229 µM) | MIC (Escherichia coli [30]): 4 µg/mL (≈ 7.32 µM) | MIC (Escherichia coli [31]): 8 µg/mL (≈ 14.6 µM) | MIC (Escherichia coli [32]): 16 µg/mL (≈ 29.3 µM) | MIC (Escherichia coli [8]): 0.25 µg/mL (≈ 0.457 µM) | MIC (Escherichia coli [9]): 64 µg/mL (≈ 117 µM) | MIC (Escherichia coli [10]): 0.125 µg/mL (≈ 0.229 µM) | MIC (Escherichia coli [33]): 4 µg/mL (≈ 7.32 µM) | MIC (Escherichia coli [11]): > 64 µg/mL | MIC (Escherichia coli [12]): > 64 µg/mL | MIC (Escherichia coli [34]): 2 µg/mL (≈ 3.66 µM) | MIC (Escherichia coli [25]): > 64 µg/mL | MIC (Escherichia coli [35]): > 64 µg/mL | MIC (Escherichia coli [36]): > 64 µg/mL | MIC (Escherichia coli [13]): > 64 µg/mL | MIC (Escherichia coli [26]): 8 µg/mL (≈ 14.6 µM) | MIC (Escherichia coli [14]): > 64 µg/mL | MIC (Escherichia coli [15]): > 64 µg/mL | MIC (Escherichia coli [16]): 0.5 µg/mL (≈ 0.915 µM) | MIC (Escherichia coli [17]): 0.125 µg/mL (≈ 0.229 µM) | MIC (Escherichia coli [37]): 8 µg/mL (≈ 14.6 µM) | MIC (Escherichia coli [18]): > 64 µg/mL | MIC (Escherichia coli [38]): 0.125 µg/mL (≈ 0.229 µM) | MIC (Escherichia coli [39]): > 64 µg/mL | MIC (Escherichia coli [40]): 0.25 µg/mL (≈ 0.457 µM) | MIC (Escherichia coli [41]): > 64 µg/mL | MIC (Escherichia coli [42]): 0.25 µg/mL (≈ 0.457 µM) | MIC (Escherichia coli [43]): 32 µg/mL (≈ 58.5 µM) | MIC (Escherichia coli [19]): 64 µg/mL (≈ 117 µM) | MIC (Escherichia coli [44]): 0.25 µg/mL (≈ 0.457 µM) | MIC (Escherichia coli [45]): > 64 µg/mL | MIC (Escherichia coli [46]): > 64 µg/mL | MIC (Escherichia coli [20]): 8 µg/mL (≈ 14.6 µM) | MIC (Escherichia coli [21]): 0.25 µg/mL (≈ 0.457 µM)

CC(C)(O/N=C(/C(=O)N[C@@H]1C(=O)N(OS(=O)(=O)O)C1(C)C)c1csc(N)n1)C(=O)O (stereo in doubt)
MIC (Escherichia coli [1]): 0.25 µg/mL (≈ 0.537 µM) | MIC (Escherichia coli [22]): 0.5 µg/mL (≈ 1.07 µM) | half-life [23]: 100 h | MIC (Escherichia coli [24]): > 32 µg/mL | MIC (Escherichia coli [8]): 0.25 µg/mL (≈ 0.537 µM) | MIC (Escherichia coli [25]): 0.25 µg/mL (≈ 0.537 µM) | MIC (Escherichia coli [26]): 0.25 µg/mL (≈ 0.537 µM) | MIC (Escherichia coli [20]): 1 µg/mL (≈ 2.15 µM)

CC(C)(O/N=C(\C(=O)N[C@@H]1C(=O)N(S(=O)(=O)O)[C@@H]1Cn1cncn1)c1nsc(N)n1)C(=O)O
MIC (Escherichia coli [1]): 1 µg/mL (≈ 1.99 µM) | MIC (Escherichia coli [22]): 32 µg/mL (≈ 63.6 µM) | MIC (Pseudomonas aeruginosa [47]): > 64 µg/mL | MIC (Escherichia coli [24]): 8 µg/mL (≈ 15.9 µM) | MIC (Pseudomonas aeruginosa [48]): 32 µg/mL (≈ 63.6 µM) | MIC (Pseudomonas aeruginosa [49]): > 64 µg/mL | MIC (Pseudomonas aeruginosa [50]): 1 µg/mL (≈ 1.99 µM) | MIC (Escherichia coli [13]): 8 µg/mL (≈ 15.9 µM) | MIC (Escherichia coli [26]): 2 µg/mL (≈ 3.97 µM) | MIC (Escherichia coli [19]): 16 µg/mL (≈ 31.8 µM) | MIC (Escherichia coli [20]): 1 µg/mL (≈ 1.99 µM)

CC(C)(O/N=C(\C(=O)N[C@@H]1C(=O)N(S(=O)(=O)O)[C@@H]1CNC(=O)CN)c1csc(N)n1)C(=O)O (stereo in doubt)
MIC (Escherichia coli [1]): 0.25 µg/mL (≈ 0.493 µM) | MIC (Escherichia coli [22]): 0.5 µg/mL (≈ 0.985 µM) | half-life [23]: 149 h | MIC (Escherichia coli [24]): 8 µg/mL (≈ 15.8 µM) | MIC (Escherichia coli [25]): 0.125 µg/mL (≈ 0.246 µM) | MIC (Escherichia coli [13]): 2 µg/mL (≈ 3.94 µM) | MIC (Escherichia coli [26]): 4 µg/mL (≈ 7.88 µM) | MIC (Escherichia coli [20]): 0.25 µg/mL (≈ 0.493 µM)
